What all share (assay type): cell-based
One data set concerns U-2 OS cells. The data set is described as follows: Comet assay (tail moment). Here is the method: Comet assays were performed using the CometAssay® kit (Trevigen) according to the manufacturer's protocol with minor modifications. Briefly, cells were counted and resuspended in PBS. 20 μl of cells at 1×10^5/mL were combined with molten LMAgarose (Trevigen) at 37° C. The cell mixture was pipetted onto the sample area of a prewarmed slide (CometSlide™, Trevigen). Slides were cooled at 4° C. in the dark for 25 minutes, and then immersed in ice-cold lysis solution (CometAssay® kit, Trevigen) at 4° C. overnight. On the following day, slides were removed from lysis solution and gently immersed in ice-cold 1× neutral electrophoresis buffer ([…]) for 30 minutes. Slides were then electrophoresed in 1× neutral electrophoresis buffer ([…]) for 45 minutes at 1 V/cm. Following electrophoresis, slides were immersed in DNA precipitation solution (1 M ammonium acetate in 95% ethanol) for 30 minutes at room temperature. Slides were then transferred and immersed in 70% ethanol for 30 minutes at room temperature. Slides were then dried for 15 minutes at 37° C., incubated with 1 μM YOYO stain (Invitrogen) for 5 minutes, and Prolong Gold Antifade (Invitrogen) and stored at 4° C. until microscope analysis.

The next data set concerns HT1080 cells. The data set is described as follows: Sister chromatid exchange (SCE) assay in HT1080. As to conditions: 72 hr siRNA knockdown of ZNF827, topotecan 2 μg/mL 1 hr. Here is the method: For the SCE assay, 20-25% confluent cells were cultured in fresh media supplemented with 7.5 μM […] (BrdU) and 2.5 μM BrdC (BrdU:BrdC 3:1 ratio; Sigma-Aldrich) for 32-48 hours depending on the mitotic index of the cell line. Cell cultures were treated with 100 ng/mL colcemid for the last 4 hours of incubation to accumulate mitotic cells. Cells were harvested by trypsinisation and centrifugation, and then incubated in hypotonic buffer for 10 minutes at 37° C. Swollen cells were fixed by gradually adding 1 mL of fresh ice-cold fixative (methanol/acetic acid 3:1), mixing by inversion and incubating on ice for 5 minutes. Cells were then collected by centrifugation at 1200 rpm for 8 minutes. 10 mL ice cold fixative was added to resuspend the cells followed by 5 minutes incubation on ice and centrifugation at 1200 rpm for 8 minutes. This fixing step was repeated another two times. Fixed cells were then resuspended in 500-1000 μL of ice-cold fixative, and dropped onto clean, dry microscope slides (HDS Surefrost, 50-100 μL cell solution per slide). To drop chromosomes, a clean dry slide was held over a 75° C. water bath, and the cell solution was dropped from a pipette onto the slide, which was quickly flipped and held close to the surface of the water bath for 5 seconds. […]

In another data set the test system is ATR-CHK1 pathway. The data set is described as follows: Western blot of pCHK1, pRPA32 and p21 after ZNF827 knockdown, topotecan and/or ATR inhibitor. Here is the method:
Protein was extracted from 10^6 cells per sample by vigorous pipetting and incubation at room temperature for 30 minutes in 100 μL of EDTA-free 4× LDS buffer (106 mM Tris-Cl, 141 mM Tris-Base, 40% Glycerol, 2% LDS, 0.075% SERVA Blue G50) supplemented with 2.5% Benzonase® nuclease 25 U/μL (Novagen, Merck Millipore) and 2% beta-mercaptoethanol (Sigma). Following protein extraction, all samples were denatured at 90° C. for 15 minutes before resolving on NuPAGE® Novex® 4-12% Bis-Tris Mini Gels (Invitrogen) with 1×10^5 cells (10 μL) loaded per lane in NuPAGE® MES SDS running buffer (Invitrogen) at 200 V for 50 minutes. Gels were transferred onto a PVDF membrane (Immobilon-P, Millipore) in transfer buffer (190 mM glycine, 25 mM Tris and 10% methanol) at 100 V for 60 minutes. Membranes were stained with Ponceau-S for 30 minutes, de-stained then blocked for 1 hour at room temperature in 5% skim milk dissolved in PBS with 0.1% Tween-20 (PBST) or TBS with 0.1% Tween-20 (TBST) for phosphorylated proteins. Membranes were cut into appropriate segments based on the size markers, with each segment incubated with antibodies for proteins of interest diluted in 0.5% skim milk in PBST/TBST or 5% BSA overnight at 4° C. (Refer to Table 4 for the list of antibodies). Blots were then washed for 3×5 minutes in PBST/TBST followed by incubation for 1 hour at room temperature with appropriate secondary antibodies (See Table 5) diluted 1:5000 in 0.5% skim milk or 5% BSA in PBST/TBST. Blots were washed for 3×5 minutes in PBST/TBST before incubation with SuperSignal West Pico Chemiluminescent Substrate (ThermoFisher Scientific) for 5 minutes at room temperature. Blots were then exposed to a Luminescent Image Analyser (LAS-4000, Fujifilm).
In general terms: Immunoblotting shows a protein as a band on a membrane.

Consider “siZNF827: Stealth RNAi siRNA ZNF827HSS135819 duplex oligoribonucleotides (Invitrogen), SEQ ID NO: 12 and 13 (chain 1 GGGCAGUCUUCUGGCUGAGAAAUCA; chain 2 UGAUUUCUCAGCCAGAAGACUGCCC; listed as RNA, further chemistry not given here)”, for which the “DNA damage measured as tail moment” value with U-2 OS cells (72 hr siRNA knockdown alone (DMSO)) is listed as “caused DNA damage measured as tail moment to a similar extent as topotecan treatment”; in the data set on U-2 OS cells (72 hr siRNA knockdown in conjunction with topotecan 2 μg/mL 24 hr), “further increased the amount of DNA damage”. Also, the “sister chromatid exchanges (SCEs)” value in the data set on HT1080 cells was “suppression of SCEs”. Moreover, in the data set on ATR-CHK1 pathway (ZNF827 knockdown versus ATR inhibitors VE-821 and AZ20), the “phosphorylation of CHK1 S345 and RPA32 S33 compared with ATR inhibitors” value is “greater reduction in phosphorylation of CHK1 S345 and RPA32 S33 than ATR inhibitors”. Besides, the “phosphorylation of CHK1 S345 and RPA S33” value in the data set on ATR-CHK1 pathway (ZNF827 knockdown, topotecan treatment) is given as “substantially suppressed”. The p21 level result in the data set on ATR-CHK1 pathway (unchallenged ZNF827-depleted cells, compared with topotecan-treated cells) is “upregulated”.

These data come from patent US20220305003A1, “METHODS OF TREATING CANCER WITH AN INHIBITOR OF ZNF827” (CHILDREN'S MEDICAL RESEARCH INSTITUTE, priority 2019, published 2022).
